Results reported in paper PMC12542817, “LaIT6: A Novel Insect-Selective K^+-Channel Toxin from Liocheles australasiae Scorpion Venom” (Molecules, 2025).
Where two headings read alike, the source gives them in different places. Where a SMILES comes first, the peptide text is derived from it. Where no end group is shown, it is not given here.

Tests used:
Shaker-IR K+ channel = target: T1, Shaker-IR K+ channel (Drosophila melanogaster, UniProt P08510, DEL6-46); assay: Two-electrode voltage clamp on Shaker-IR K+ channel expressed in Xenopus oocytes; format: biochemical; settings: for IC50: TEVC in Xenopus laevis oocytes, ND96 pH 7.4, 18–22 °C, n ≥ 3 per concentration, read-out: IC50, inhibition of Shaker-IR K+ channel
T1 construct: expressed in transfected cells; host or cells: Xenopus laevis oocytes injected with in-vitro-transcribed cRNA
T1 sequence (P08510 with tags, fused parts or gaps DEL6-46): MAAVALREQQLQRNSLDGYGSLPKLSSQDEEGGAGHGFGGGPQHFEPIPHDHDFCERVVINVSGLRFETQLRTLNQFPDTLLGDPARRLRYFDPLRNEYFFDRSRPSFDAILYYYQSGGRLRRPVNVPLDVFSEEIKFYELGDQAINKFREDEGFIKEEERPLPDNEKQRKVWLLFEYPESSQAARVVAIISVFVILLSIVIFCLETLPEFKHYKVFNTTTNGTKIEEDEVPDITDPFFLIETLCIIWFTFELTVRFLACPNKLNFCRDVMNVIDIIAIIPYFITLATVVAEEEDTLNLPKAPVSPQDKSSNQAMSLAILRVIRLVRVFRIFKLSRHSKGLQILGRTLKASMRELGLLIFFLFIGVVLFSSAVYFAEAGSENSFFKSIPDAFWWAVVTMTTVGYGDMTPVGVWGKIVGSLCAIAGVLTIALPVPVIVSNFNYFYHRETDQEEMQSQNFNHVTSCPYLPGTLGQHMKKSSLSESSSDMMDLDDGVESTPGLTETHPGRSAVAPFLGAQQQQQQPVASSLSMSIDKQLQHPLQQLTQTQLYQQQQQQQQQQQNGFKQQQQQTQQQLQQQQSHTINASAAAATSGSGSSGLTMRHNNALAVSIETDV
Method: Electrophysiological experiments were carried out in Xenopus laevis oocytes. Linearized plasmids encoding Shaker-IR, hKv1.1, and hKv1.2 channels were transcribed using the T7 mMESSAGE mMACHINE transcription kit (Ambion, Austin, TX, USA). Mature female animals were purchased from Nasco (Fort Atkinson, WI, USA) and were housed in the Aquatic Facility (KU Leuven) in compliance with the regulations of the European Union (EU) concerning the welfare of laboratory animals as declared in Directive 2010/63/EU. The use of X. laevis oocytes was approved by the Animal Ethics Committee of the KU Leuven with license number P186/2019. Stage V–VI oocytes were collected from anesthetized female X. laevis frogs as previously described, with the frogs anesthetized by placement in 0.1% tricaine solution (amino benzoic acid ethyl ester; Merck, Rahway, NJ, USA). Oocyte microinjection was performed using a microinjector (World Precision Instruments, Sarasota, FL, USA), with a programmed cRNA injection volume of 4–10 nL, depending on the channel subtype. The oocytes were incubated in an MBS solution (88 mM NaCl, 1 mM KCl, 2.5 mM NaHCO3, 1 mM MgSO4, and 5 mM HEPES, pH 7.8) supplemented with 50 mg/L gentamicin sulfate and 90 mg/L theophylline. Electrophysiological measurements were performed at room temperature (18–22 °C) using the two-electrode voltage clamp (TEVC) technique. Data were obtained using a GeneClamp 500 amplifier (Axon Instruments, Burlingame, CA, USA), and Clampex9 software (Axon Instruments, Union City, CA, USA) was used for data acquisition and storage. Glass micropipettes were produced using glass capillaries (borosilicate WPI 1B120-6) and drawn in a WPI (World Precision Instruments, Sarasota, FL, USA) manual stretcher. The bath and perfusion solutions were ND96 (96 mM NaCl, 2 mM KCl, 1.8 mM CaCl2, 2 mM MgCl2, and 5 mM HEPES, pH 7.4). Whole-cell currents of oocytes were recorded 1 to 3 days after injection. Current and voltage electrodes were filled with 3 M KCl, and their resistance was adjusted from 0.5 to 1.5 MΩ. […]

[1] = system: mice (male Slc:ICR strain); assay: Mammalian toxicity, intracerebroventricular injection into mice; format: in vivo, mouse; settings: injection dose 50 nmol/kg, in PBS, male Slc:ICR mice 20 g, three animals, monitored for up to 24 h
Method: (§1) The insecticidal activity was evaluated as previously described. In this study, we used crickets (Acheta domesticus, 45–55 mg), houseflies (Musca domestica, 13–17 mg), silkworms (Bombyx mori, 225–275 mg), and cockroaches (Periplaneta americana, 75–225 mg). Each peptide in distilled water was injected into the abdominal region of insects. As a negative control, distilled water was used. Ten insects were used for each dose, except for doses of 3.1 and 6.3 nmol in LaIT6(R24A), for which 15 and 20 insects were used, respectively. The number of dead insects was counted 48 h after injection (24 h after injection in the case of houseflies). […] Toxicity to mammals was evaluated as previously described. The sample solution in a PBS buffer was injected intracerebroventricularly into mice (male Slc:ICR strain, 20 g) after anesthetizing with isoflurane. As a negative control, PBS buffer was used. Three animals were used for each measurement, and toxic symptoms were monitored for up to 24 h. The experimental protocol was approved by the Ethical Committee for the Welfare of Animals at Kyoto University.

[2] = system: crickets (Acheta domesticus); assay: Insecticidal activity against crickets (injection, LD50); format: in vivo; settings: injection into abdominal region in distilled water; Acheta domesticus 45–55 mg; ten insects per dose; dead insects counted 48 h after injection; brackets = 95% confidence interval
Method: as §1

## CC[C@H](C)[C@@H]1NC(=O)[C@@H]2CSSC[C@H](NC(=O)[C@@H]3CCCN3C(=O)[C@@H](NC(=O)[C@H](CC(N)=O)NC(=O)[C@@H]3CCCN3C(=O)[C@@H]3CCCN3C(=O)[C@@H](NC(=O)[C@@H](N)CO)C(C)C)[C@@H](C)CC)C(=O)N[C@@H](CCC(N)=O)C(=O)N[C@@H](C(C)C)C(=O)N[C@@H]([C@@H](C)O)C(=O)N[C@@H](CC(N)=O)C(=O)N[C@@H](CCC(N)=O)C(=O)N[C@H]3CSSC[C@H](NC(=O)[C@H](CCCNC(=N)N)NC(=O)CNC(=O)[C@H](CC(N)=O)NC1=O)C(=O)N[C@@H](CCCCN)C(=O)N[C@H](C(=O)N[C@@H](Cc1ccc(O)cc1)C(N)=O)CSSC[C@H](NC(=O)[C@@H]1CCCN1C(=O)[C@H](CCCCN)NC(=O)[C@@H]1CCCN1C3=O)C(=O)N[C@@H](CCCNC(=N)N)C(=O)N[C@@H](CCC(=O)O)C(=O)N[C@@H](C)C(=O)N[C@@H]([C@@H](C)O)C(=O)NCC(=O)N[C@@H](CCCNC(=N)N)C(=O)N1CCC[C@H]1C(=O)N[C@@H](CC(N)=O)C(=O)N[C@@H](CO)C(=O)N[C@@H](C)C(=O)N2 [LaIT6(K28A)] (HELM PEPTIDE1{S.V.P.P.N.I.P.C.Q.V.T.N.Q.C.P.K.P.C.R.E.A.T.G.R.P.N.S.A.C.I.N.G.R.C.K.C.Y.[am]}$PEPTIDE1,PEPTIDE1,8:R3-29:R3|PEPTIDE1,PEPTIDE1,14:R3-34:R3|PEPTIDE1,PEPTIDE1,18:R3-36:R3$$$V2.0)
Shaker-IR K+ channel; 95% CI 0.81–6.7 µM
  IC50: 2.3 µM
Shaker-IR K+ channel; ratio of IC50 LaIT6(K28A) to IC50 LaIT6
  IC50 on Shaker-IR relative to wild-type LaIT6 (times higher): approximately 300 times

## CC[C@H](C)[C@@H]1NC(=O)[C@@H]2CSSC[C@H](NC(=O)[C@@H]3CCCN3C(=O)[C@@H](NC(=O)[C@H](CC(N)=O)NC(=O)[C@@H]3CCCN3C(=O)[C@@H]3CCCN3C(=O)[C@@H](NC(=O)[C@@H](N)CO)C(C)C)[C@@H](C)CC)C(=O)N[C@@H](CCC(N)=O)C(=O)N[C@@H](C(C)C)C(=O)N[C@@H]([C@@H](C)O)C(=O)N[C@@H](CC(N)=O)C(=O)N[C@@H](CCC(N)=O)C(=O)N[C@H]3CSSC[C@H](NC(=O)[C@H](CCCNC(=N)N)NC(=O)CNC(=O)[C@H](CC(N)=O)NC1=O)C(=O)N[C@@H](CCCCN)C(=O)N[C@H](C(=O)N[C@@H](Cc1ccc(O)cc1)C(N)=O)CSSC[C@H](NC(=O)[C@@H]1CCCN1C(=O)[C@H](CCCCN)NC(=O)[C@@H]1CCCN1C3=O)C(=O)N[C@@H](CCCNC(=N)N)C(=O)N[C@@H](CCC(=O)O)C(=O)N[C@@H](C)C(=O)N[C@@H]([C@@H](C)O)C(=O)NCC(=O)N[C@@H](CCCNC(=N)N)C(=O)N1CCC[C@H]1C(=O)N[C@@H](CC(N)=O)C(=O)N[C@@H](CO)C(=O)N[C@@H](CCCCN)C(=O)N2 [LaIT6] (HELM PEPTIDE1{S.V.P.P.N.I.P.C.Q.V.T.N.Q.C.P.K.P.C.R.E.A.T.G.R.P.N.S.K.C.I.N.G.R.C.K.C.Y.[am]}$PEPTIDE1,PEPTIDE1,8:R3-29:R3|PEPTIDE1,PEPTIDE1,14:R3-34:R3|PEPTIDE1,PEPTIDE1,18:R3-36:R3$$$V2.0)
[1]
  Mammalian toxicity (toxic symptoms) in mice: did not observe any toxic symptoms
Shaker-IR K+ channel; 95% CI 4.8–14 nM
  IC50: 0.0082 µM

## SVPPNIPCQVTNQCPKPCREATGRPNSKCINGRCKCY-OH (disulfide (positions not given here)) [LaIT6(COOH), LaIT6 analog, C-terminal amide group converted to a carboxyl group]
[2]
  LD50, insecticidal activity against crickets: 19 (14–25) nmol/g
